Test results reported in patent US7803940B2, “Heteromonocyclic compound or a salt thereof having strong antihypertensive action, insulin sensitizing activity and the like production thereof and use thereof for prophylaxis or treatment of cardiovascular diseases, metabolic diseases and/or central nervous system diseases” (Takeda Pharmaceutical Company Limited, priority 2006, dated 2010).
Where a name gives a salt, the structure may show the parent alone. Read-outs that look alike come from different tables or passages of the source.

Experiments:
PPARγ = biological target: T1, PPARγ (Homo sapiens, UniProt P37231); assay: Evaluation of PPARγ activating action (luciferase reporter, PPARγ:RXRα:4ERPP/CHO-K1 cells); assay type: cell-based; conditions: for activation at 1 µM: CHO-K1, 24 h, read-out: PPARγ activating action (activation % (10^−6 M))
T1 construct: expressed in transfected cells; host or cells: CHO-K1
T1 sequence (P37231 1-477 isoform P37231-2): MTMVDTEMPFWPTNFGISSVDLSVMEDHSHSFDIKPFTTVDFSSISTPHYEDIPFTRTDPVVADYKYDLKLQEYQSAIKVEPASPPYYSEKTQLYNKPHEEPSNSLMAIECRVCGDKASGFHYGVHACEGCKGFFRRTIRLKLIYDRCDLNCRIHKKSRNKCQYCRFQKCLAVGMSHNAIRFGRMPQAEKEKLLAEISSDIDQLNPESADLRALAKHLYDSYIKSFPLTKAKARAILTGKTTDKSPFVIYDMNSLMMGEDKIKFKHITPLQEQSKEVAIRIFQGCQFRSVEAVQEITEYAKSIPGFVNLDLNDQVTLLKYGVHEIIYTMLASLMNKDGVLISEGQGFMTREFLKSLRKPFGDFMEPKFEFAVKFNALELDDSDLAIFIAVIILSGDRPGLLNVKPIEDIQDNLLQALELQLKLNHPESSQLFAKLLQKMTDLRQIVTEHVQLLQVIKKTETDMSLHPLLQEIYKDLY
T1 sequence (P19793 1-462 partner): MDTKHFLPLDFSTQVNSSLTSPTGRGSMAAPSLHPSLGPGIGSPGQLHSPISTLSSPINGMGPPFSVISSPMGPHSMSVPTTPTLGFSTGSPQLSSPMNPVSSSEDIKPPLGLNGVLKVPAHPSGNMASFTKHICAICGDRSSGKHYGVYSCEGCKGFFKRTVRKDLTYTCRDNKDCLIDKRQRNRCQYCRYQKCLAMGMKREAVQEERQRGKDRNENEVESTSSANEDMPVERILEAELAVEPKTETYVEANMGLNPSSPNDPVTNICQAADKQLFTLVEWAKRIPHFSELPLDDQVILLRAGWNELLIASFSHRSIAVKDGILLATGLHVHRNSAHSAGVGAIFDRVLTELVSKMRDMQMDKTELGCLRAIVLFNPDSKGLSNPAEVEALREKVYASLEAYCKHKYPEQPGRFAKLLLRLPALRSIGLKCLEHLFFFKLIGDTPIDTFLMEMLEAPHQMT
Protocol: PPARγ:RXRα:4ERPP/CHO-K1 cells obtained in the following Reference Example 5 were cultured in F12 medium [manufactured by INVITROGEN, USA] containing 10% fetal bovine serum [manufactured by MOREGATE, Australia], seeded in a 96-well half area white plate [manufactured by Corning Coster Corporation, USA] at the density of 5×10^3 cells/well and cultured in a CO2 gas incubator at 37° C. overnight.
Then the medium was removed from the 96-well half area white plate, 45 μl of Ham's F12 medium containing 0.1% fatty acid-free bovine serum albumin (BSA) and 5 μl of test compound were added, and the cells were cultured in a CO2 gas incubator at 37° C. for 1 day. The medium was removed and 20 μl of PicaGene 7.5 [manufactured by TOYO INK MFG. CO., LTD., Japan] diluted 2-fold with HBSS (HANKS' BALANCED SALT SOLUTION) [manufactured by BIO WHITTAKER, USA] was added. After stirring, the luciferase activity was determined using 1420 ARVO Multilabel Counter [manufactured by PerkinElmer, USA].
The percent (%) was calculated from the luciferase activity of each test compound when the luciferase activity of the control compound (compound X: 5-[3-(4-{[2-(2-furyl)-5-methyl-1,3-oxazol-4-yl]methoxy}-3-methoxyphenyl)propyl]-1,3-oxazolidine-2,4-dione) (1 μM) was 100% and that of the test compound non-administration group was 0%.
A CHO-K1 cell cultured in a 150 cm^2 cell culture flask [manufactured by Corning Costar Corporation, USA] containing Ham's F12 medium [manufactured by INVITROGEN, USA] supplemented with 10% fetal bovine serum [manufactured by INVITROGEN, USA] was scraped by treating with 0.5 g/L trypsin-0.2 g/L EDTA (ethylenediaminetetraacetic acid) [manufactured by Life Technologies, Inc., USA], and then the cell was washed with PBS (Phosphate-buffered saline) [manufactured by INVITROGEN, USA], centrifuged (1000 rpm, 5 minutes) and suspended in PBS. Subsequently, DNA was introduced into the cell under the conditions shown below using GENE PULSER [manufactured by Bio-Rad Laboratories, USA].
Namely, to a cuvette having a 0.4 cm gap were added 8×10^6 cells and 10 μg of plasmid pVgRXR2-hPPARγ obtained in Reference Example 4 and 10 μg of reporter plasmid pGL3-4ERPP-TK neo obtained in Reference Example 3, which was subjected to electroporation at the voltage of 0.25 kV under the capacitance of 960 μF. Subsequently, the cell was transferred into a F12 medium containing 10% fetal bovine serum and cultured for 24 hours, and then the cell was scraped again and centrifuged, and then suspended in Ham's F12 medium containing 10% fetal bovine serum supplemented with 500 μg/ml of Geneticin [manufactured by INVITROGEN, USA] and 250 μg/ml of Zeocin [manufactured by INVITROGEN, USA]. The obtained suspension was diluted to the density of 1 cells/ml and inoculated in a 96-well plate [manufactured by Corning Costar Corporation, USA], which was cultured in a CO2 gas incubator at 37° C., whereby obtaining a Geneticin- and Zeocin-resistant transformant.
Subsequently, after the transformant cell line thus obtained was cultured in a 24-well plate [manufactured by Corning Costar Corporation, USA], a cell line in which the luciferase was expressed and induced, i.e., PPARγ:RXRα:4ERPP/CHO-K1 cell was selected by the addition of 10 μM pioglitazone hydrochloride.

human AT1 receptor = biological target: T2, human AT1 receptor (Homo sapiens, UniProt P30556); assay: Binding assay using human AT1 receptor-expressing CHO-K1 cell membrane fraction ([125I]-angiotensin II); conditions: 22.5 pM [125I]-angiotensin II, 9 μg AT1 membrane, 1 hr room temperature; read-out: AT1 receptor binding inhibitory action (IC50 (nM))
T2 construct: expressed in transfected cells; host or cells: CHO-K1
T2 sequence (P30556 1-359): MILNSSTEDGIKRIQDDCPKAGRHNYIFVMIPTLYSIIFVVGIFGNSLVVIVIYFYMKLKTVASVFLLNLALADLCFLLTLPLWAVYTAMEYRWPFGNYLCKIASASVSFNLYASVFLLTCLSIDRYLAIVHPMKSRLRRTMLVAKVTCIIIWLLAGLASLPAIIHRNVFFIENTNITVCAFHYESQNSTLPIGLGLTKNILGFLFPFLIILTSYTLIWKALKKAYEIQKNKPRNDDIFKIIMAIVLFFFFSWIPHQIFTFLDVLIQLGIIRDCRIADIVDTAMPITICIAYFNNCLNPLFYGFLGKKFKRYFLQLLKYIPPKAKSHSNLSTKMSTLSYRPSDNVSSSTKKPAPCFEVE
Protocol: The membrane fraction for human AT1 receptor binding assay was prepared as follows. CHO-K1 cell capable of stable expression of human AT1 receptor was cultured, recovered, suspended in homogenize buffer (10 mM NaHCO3 (pH 7.4), 5 mM EDTA, 1×Complete EDTA free) [manufactured by Roche, Switzerland], and homogenized. The homogenate was centrifuged at low-speed (900×g, 10 min, 4° C.), and the supernatant was recovered and ultracentrifuged (90,000×g, 1 hr, 4° C.). The supernatant was discarded, and the pellets were resuspended in resuspension buffer (50 mM Tris (pH 7.4), 1 mM EDTA, 1×Complete EDTA free).
The binding assay was performed in the presence of 22.5 pM [^125I]-angiotensin II [manufactured by PerkinElmer, USA], 9 μg of AT1 membrane and test compound in 100 μL (total reaction volume) of reaction buffer (50 mM Tris (pH 7.4), 10 mM MgCl2 supplemented or not supplemented with 0.3 mg/mL fatty acid-free bovine serum albumin [manufactured by Wako Pure Chemical Industries, Ltd., Japan]). […] The filter was air-dried, and [^125I]-angiotensin II binding radioactivity was assayed with Top Count scintillation counter. Total binding was measured in the presence of 1% DMSO and nonspecific binding was measured in the presence of 1 μM CV-11974. […]

[1] = test compound 10^−6 M, luciferase activity of control compound X (1 μM) = 100%, non-administration group = 0%

Structure (SMILES)	PPARγ activating action (activation % (10^−6 M)) (PPARγ; [1])	further results
CCCCc1nc(CC)n(Cc2ccccc2)c(=O)c1Cc1ccc(-c2ccccc2-c2noc(=O)[nH]2)cc1 [Example 105, 3-benzyl-6-butyl-2-ethyl-5-{[2′-(5-oxo-4,5-dihydro-1,2,4-oxadiazol-3-yl)biphenyl-4-yl]methyl}pyrimidin-4(3H)-one]	64.1%	
CCCCc1nc(CC)n(CC(=O)C(C)(C)C)c(=O)c1Cc1ccc(-c2ccccc2-c2noc(O)n2)cc1 [Example 309, 6-butyl-3-(3,3-dimethyl-2-oxobutyl)-2-ethyl-5-{[2′-(5-oxo-4,5-dihydro-1,2,4-oxadiazol-3-yl)biphenyl-4-yl]methyl}pyrimidin-4(3H)-one potassium salt]		activation at 1 µM (PPARγ): 31.5%; IC50 (human AT1 receptor): 1.6 nM
CCCCc1nc(C2CC2)n(-c2ccccc2)c(=O)c1Cc1ccc(-c2ccccc2-c2noc([O-])n2)cc1.[K+] [Example 310, 6-butyl-2-cyclopropyl-5-{[2′-(5-oxo-4,5-dihydro-1,2,4-oxadiazol-3-yl)biphenyl-4-yl]methyl}-3-phenylpyrimidin-4(3H)-one potassium salt]	27.1%	
CCCc1nc(CC)n(-c2ccc3c(c2)CCO3)c(=O)c1Cc1ccc(-c2ccccc2-c2noc([O-])n2)cc1.[K+] [Example 311, 3-(2,3-dihydro-1-benzofuran-5-yl)-2-ethyl-5-{[2′-(5-oxo-4,5-dihydro-1,2,4-oxadiazol-3-yl)biphenyl-4-yl]methyl}-6-propylpyrimidin-4(3H)-one potassium salt]	38.1%	
CCCc1nc(CC)n(-c2ccc3c(c2)CC(C)O3)c(=O)c1Cc1ccc(-c2ccccc2-c2noc([O-])n2)cc1.[K+] (centres unmarked) [Example 312, 2-ethyl-3-(2-methyl-2,3-dihydro-1-benzofuran-5-yl)-5-{[2′-(5-oxo-4,5-dihydro-1,2,4-oxadiazol-3-yl)biphenyl-4-yl]methyl}-6-propylpyrimidin-4(3H)-one potassium salt]	50.3%	
CCCc1nc(CC)n(-c2ccc(OC)cc2)c(=O)c1Cc1ccc(-c2ccccc2-c2noc([O-])n2)cc1.[K+] [Example 313, 2-ethyl-3-(4-methoxyphenyl)-5-{[2′-(5-oxo-4,5-dihydro-1,2,4-oxadiazol-3-yl)biphenyl-4-yl]methyl}-6-propylpyrimidin-4(3H)-one potassium salt]	31.0%	
CCCc1nc(C(F)F)n(-c2ccc(OC)cc2)c(=O)c1Cc1ccc(-c2ccccc2-c2noc(=O)[nH]2)cc1 [Example 410, 2-(difluoromethyl)-3-(4-methoxyphenyl)-5-{[2′-(5-oxo-4,5-dihydro-1,2,4-oxadiazol-3-yl)biphenyl-4-yl]methyl}-6-propylpyrimidin-4(3H)-one]		activation at 1 µM (PPARγ; [1]): 19.5%
CCCc1nc(CC)c(C(O)C(C)C)c(=O)n1Cc1ccc(-c2ccccc2-c2noc(O)n2)cc1 (centres unmarked) [Example 473, 6-ethyl-5-(1-hydroxy-2-methylpropyl)-3-{[2′-(5-oxo-4,5-dihydro-1,2,4-oxadiazol-3-yl)biphenyl-4-yl]methyl}-2-propylpyrimidin-4(3H)-one potassium salt]	15.7%	
CCCc1nc(C)c(Oc2ccc(OC)cc2)c(=O)n1Cc1ccc(-c2ccccc2-c2noc(O)n2)cc1 [Example 476, 5-(4-methoxyphenoxy)-6-methyl-3-{[2′-(5-oxo-4,5-dihydro-1,2,4-oxadiazol-3-yl)biphenyl-4-yl]methyl}-2-propylpyrimidin-4(3H)-one potassium salt]	18.5%	
CCCc1nc(CC)c(Oc2cccc(OC)c2)c(=O)n1Cc1ccc(-c2ccccc2-c2noc(O)n2)cc1 [Example 488, 6-ethyl-5-(3-methoxyphenoxy)-3-{[2′-(5-oxo-4,5-dihydro-1,2,4-oxadiazol-3-yl)biphenyl-4-yl]methyl}-2-propylpyrimidin-4(3H)-one potassium salt]	16.7%	
